Measured values reported in patent US8618355B2, “Aromatic prenyltransferase from hop” (priority 2008, dated 2013).
Where two headings read alike, the source gives them in different places.

Experiments:
HIPT1 [1] = molecular target: T1, HIPT1 (Humulus lupulus, UniProt E5RP65, INS53SN/R152W); format: biochemical; design: were designed to amplify the open reading frame (ORF) of the prenlyltransferase gene; N-terminal 6xHis and TEV site from the pFastBacHT C vector (own knowledge of the vector); made in house; host or cells: Spodoptera frugiperda (Sf9) insect cells, baculovirus (Bac-to-Bac); microsomal preparation, not purified; settings: mean ± SD (n = 3), read-out: Km Substrate
T1 sequence (E5RP65 other isoform, or with tags, fused parts or gaps INS53SN/R152W): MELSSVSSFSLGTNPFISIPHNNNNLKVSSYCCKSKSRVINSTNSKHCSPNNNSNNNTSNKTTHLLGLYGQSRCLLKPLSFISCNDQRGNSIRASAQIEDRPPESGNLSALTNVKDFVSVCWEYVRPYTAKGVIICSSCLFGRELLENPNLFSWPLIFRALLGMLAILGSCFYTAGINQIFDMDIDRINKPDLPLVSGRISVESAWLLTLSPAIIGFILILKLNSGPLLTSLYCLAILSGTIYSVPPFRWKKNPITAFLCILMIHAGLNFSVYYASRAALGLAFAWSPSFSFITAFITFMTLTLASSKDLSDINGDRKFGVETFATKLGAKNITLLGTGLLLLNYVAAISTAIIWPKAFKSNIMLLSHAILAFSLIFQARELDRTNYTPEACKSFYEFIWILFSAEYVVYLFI
Method: (§1) HIPT1 enzyme was assayed with phlorisobutyryphenone (PIBP), phlorisovalerophenone (PIVP) and chalconaringenin. Microsomal preparations from Example 2 were used in a 100 μl enzyme assay containing 100 mM Tris-HCl pH 7.0, 10 mM MgCl2, 0.5 mM aromatic substrate (PIBP, PIVP or chalconaringenin), 0.5 mM dimethylallyldiphosphate (DMAPP) and 20 μl of microsomes from insect cells expressing recombinant HIPT1. The assays were incubated at 30° C. for 120 min, the reactions stopped by addition of 5 μl 6N HCl, the reaction products extracted with 200 μl ethyl acetate and dried. The dried products were resuspended in 100 μl of methanol and analyzed by reversed-phase HPLC (solvent A: 0.1% TFA in water, solvent B: acetonitrile; 0-10 min, 40% B to 50% B; 10-20 min, 50% B to 100% B; flow rate 1 ml/min).

HIPT1 [2] = molecular target: T1, HIPT1; experiment: HIPT1 enzyme assay with aromatic substrate and DMAPP, products analysed by HPLC and LC-MS; format: biochemical; design: were designed to amplify the open reading frame (ORF) of the prenlyltransferase gene; N-terminal 6xHis and TEV site from the pFastBacHT C vector (own knowledge of the vector); made in house; host or cells: Spodoptera frugiperda (Sf9) insect cells, baculovirus (Bac-to-Bac); microsomal preparation, not purified; settings: 0.5 mM aromatic substrate, 0.5 mM DMAPP, 30° C., 120 min, pH 7.0
Method: as §1
Abbreviations: PIBP is phlorisobutyrophenone, PIVP is phlorisovalerophenone, DMAPP is dimethylallyl diphosphate.

HIPT1 [3] = molecular target: T1, HIPT1; experiment: Substrate specificity of HIPT1 prenyltransferase activity (14C-DMAPP, radioHPLC); format: biochemical; design: were designed to amplify the open reading frame (ORF) of the prenlyltransferase gene; N-terminal 6xHis and TEV site from the pFastBacHT C vector (own knowledge of the vector); made in house; host or cells: Spodoptera frugiperda (Sf9) insect cells, baculovirus (Bac-to-Bac); microsomal preparation, not purified; settings: aromatic acceptor substrates
Method: Referring to FIG. 9A, prenyltransferase activity of HIPT1 on various substrates was measured using ^14C-DMAPP and thirteen aromatic acceptor substrates. Prenylated products were detected and quantified using radioHPLC. Error bars are SD (n=3). Referring to FIG. 9B, prenyltransferase activity of HIPT1 was measured with different prenyl diphosphate donors and the three major aromatic acceptor substrates, PIBP, PIVP and chalconaringenin. Prenylated products were quantified using HPLC with UV detection. Abbreviations: PIBP, phlorisobutyrophenone, PIVP, phlorisovalerophenone; DMAPP, dimethylallyl diphosphate; IPP, isopentenyl diphosphate; GPP, geranyl diphosphate; GGPP, geranylgeranyl diphosphate. Error bars are SD (n=3).

HIPT1 [4] = molecular target: T1, HIPT1; settings: presence of EDTA

Structure (SMILES) | Km (HIPT1 [1]; acceptor substrate) [µM] | Prenylation by HIPT1 (product formed) (HIPT1 [2]) | Acceptance as substrate of HIPT1 (HIPT1 [3]) | further results
O=C(/C=C/c1ccc(O)cc1)c1c(O)cc(O)cc1O [Chalconaringenin, chalconaringenin] | 196 ± 24.8 | forming desmethylxanthohumol | – | –
Cc1cc(O)cc(O)c1 [orcinol] | – | – | can accept | –
CC(C)=CCOP(=O)(O)OP(=O)(O)O [DMAPP, dimethylallyldiphosphate] | – | – | – | Km (HIPT1 [1]; prenyl donor, determined with PIVP as acceptor substrate): 16.8 ± 2.35 µM
CC(C)=CCc1c(O)cc(O)c(C(=O)C(C)C)c1O [prenyl-PIBP] | – | – | does prenylate prenyl-PIBP to form diprenyl-PIBP | –
CC(C)CC(=O)c1c(O)cc(O)cc1O [PIVP, phlorisovalerophenone] | 4.95 ± 0.25 | forming prenyl PIVP | – | –
CC(C)C(=O)c1c(O)cc(O)cc1O [PIBP, phlorisobutyryphenone] | 10.2 ± 0.55 | forming prenyl PIBP | – | –
O=C(/C=C/c1ccc(O)cc1)c1ccc(O)cc1O [isoliquiritigenin] | – | – | can accept | –
Oc1ccc(C=Cc2cc(O)cc(O)c2)cc1 [resveratrol] | – | – | can accept | –
O=C(O)CN(CCN(CC(=O)O)CC(=O)O)CC(=O)O [EDTA] | – | – | – | Effect on prenyltransferase activity of HIPT1 (HIPT1 [4]): completely inhibited
